Common to all, as to assay type: biochemical
Test [1] deals with T1, human JAK3 (a.a. 781-1124) (Homo sapiens, UniProt P52333).
T1 construct: JAK3 (a.a. 781-1124); His tag (N); made in house; host or cells: insect cells (baculovirus)
The test is described as follows: In vitro JAK kinase assay (HTRF, phosphorylation of a biotinylated peptide), JAK3. The procedure, abridged: (§1)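 Phosphorylation of a biotinylated peptide by the JAK kinase domain, detected by HTRF with Eu-Py20 and SA-APC. ATP was 90 μM for JAK1, 30 μM for JAK2 and 3 μM for JAK3. Reactions ran 1 h at room temperature and were stopped with EDTA, followed by 40 min antibody binding.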

In test [2] the target is TYK2 (Homo sapiens, UniProt P29597). Put plainly: TYK2 kinase inhibition (Table A1).
Test [3] deals with T2, Recombinant Human Anaplastic Lymphoma Kinase (Homo sapiens, UniProt Q9UM73).
T2 construct: purchased Invitrogen, Carlsbad, Calif
The test is described as follows: ALK HTRF kinase assay. In outline: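 Recombinant human ALK with biotinylated peptide substrate; phosphorylation detected by HTRF using Eu-labelled anti-phosphotyrosine antibody and streptavidin-allophycocyanin. IC50 from a sigmoidal fit with Hill slope.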

Test [4] concerns the target T3, human JAK2 (a.a. 828-1132) (Homo sapiens, UniProt O60674).
T3 construct: JAK2 (a.a. 828-1132); His tag (N); made in house; host or cells: insect cells (baculovirus)
The test is described as follows: In vitro JAK kinase assay (HTRF, phosphorylation of a biotinylated peptide), JAK2. In outline: as §1

The target of test [5] is T4, human JAK1 (a.a. 837-1142) (Homo sapiens, UniProt P23458).
T4 construct: human JAK1 (a.a. 837-1142); His tag (N); made in house; host or cells: insect cells (baculovirus)
Put plainly: In vitro JAK kinase assay (HTRF, phosphorylation of a biotinylated peptide), JAK1. Particulars: read-out: JAK1 IC50. In outline: as §1

The mark [6] stands for this setting: compound at a concentration of 500 nM or 1 mM (not specified), cells shown as percentage.
Setting [7] is: Table B1, cells without percent sign.
Setting [8] is: method AA1 (3 μM ATP) or AA2 (1000 μM ATP), not stated per value.
Where [9] appears, read: compound at 500 nM or 1 mM, 90 μM ATP.
The mark [10] stands for this setting: method AA1 (30 μM ATP) or AA2 (1000 μM ATP), not stated per value.
Setting [11] is: method AA1 (90 μM ATP) or AA2 (1000 μM ATP), not stated per value.

Each structure is given as a SMILES string. pIC50: −log10 of the molar value. Where a name gives a salt, the structure may show the parent alone. Read-outs that look alike come from different tables or passages of the source.

T4 sequence (P23458 849-1154): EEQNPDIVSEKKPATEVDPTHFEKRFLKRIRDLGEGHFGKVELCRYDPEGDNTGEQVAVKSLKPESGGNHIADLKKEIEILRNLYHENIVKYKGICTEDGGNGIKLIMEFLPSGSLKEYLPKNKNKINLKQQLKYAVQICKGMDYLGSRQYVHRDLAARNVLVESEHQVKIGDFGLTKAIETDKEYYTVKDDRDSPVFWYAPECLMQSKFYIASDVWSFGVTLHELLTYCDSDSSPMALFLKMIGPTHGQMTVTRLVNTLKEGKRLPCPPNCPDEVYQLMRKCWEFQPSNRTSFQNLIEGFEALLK
T3 sequence (O60674 828-1132): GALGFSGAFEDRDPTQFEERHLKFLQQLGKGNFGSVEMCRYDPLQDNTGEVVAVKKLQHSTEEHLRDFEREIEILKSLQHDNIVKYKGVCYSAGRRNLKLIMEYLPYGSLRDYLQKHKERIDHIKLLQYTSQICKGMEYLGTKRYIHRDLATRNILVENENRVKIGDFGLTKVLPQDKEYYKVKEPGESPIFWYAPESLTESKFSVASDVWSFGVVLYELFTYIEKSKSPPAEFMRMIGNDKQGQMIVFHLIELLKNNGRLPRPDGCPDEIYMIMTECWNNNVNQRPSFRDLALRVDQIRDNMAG
Sequence of TYK2 (P29597 whole entry): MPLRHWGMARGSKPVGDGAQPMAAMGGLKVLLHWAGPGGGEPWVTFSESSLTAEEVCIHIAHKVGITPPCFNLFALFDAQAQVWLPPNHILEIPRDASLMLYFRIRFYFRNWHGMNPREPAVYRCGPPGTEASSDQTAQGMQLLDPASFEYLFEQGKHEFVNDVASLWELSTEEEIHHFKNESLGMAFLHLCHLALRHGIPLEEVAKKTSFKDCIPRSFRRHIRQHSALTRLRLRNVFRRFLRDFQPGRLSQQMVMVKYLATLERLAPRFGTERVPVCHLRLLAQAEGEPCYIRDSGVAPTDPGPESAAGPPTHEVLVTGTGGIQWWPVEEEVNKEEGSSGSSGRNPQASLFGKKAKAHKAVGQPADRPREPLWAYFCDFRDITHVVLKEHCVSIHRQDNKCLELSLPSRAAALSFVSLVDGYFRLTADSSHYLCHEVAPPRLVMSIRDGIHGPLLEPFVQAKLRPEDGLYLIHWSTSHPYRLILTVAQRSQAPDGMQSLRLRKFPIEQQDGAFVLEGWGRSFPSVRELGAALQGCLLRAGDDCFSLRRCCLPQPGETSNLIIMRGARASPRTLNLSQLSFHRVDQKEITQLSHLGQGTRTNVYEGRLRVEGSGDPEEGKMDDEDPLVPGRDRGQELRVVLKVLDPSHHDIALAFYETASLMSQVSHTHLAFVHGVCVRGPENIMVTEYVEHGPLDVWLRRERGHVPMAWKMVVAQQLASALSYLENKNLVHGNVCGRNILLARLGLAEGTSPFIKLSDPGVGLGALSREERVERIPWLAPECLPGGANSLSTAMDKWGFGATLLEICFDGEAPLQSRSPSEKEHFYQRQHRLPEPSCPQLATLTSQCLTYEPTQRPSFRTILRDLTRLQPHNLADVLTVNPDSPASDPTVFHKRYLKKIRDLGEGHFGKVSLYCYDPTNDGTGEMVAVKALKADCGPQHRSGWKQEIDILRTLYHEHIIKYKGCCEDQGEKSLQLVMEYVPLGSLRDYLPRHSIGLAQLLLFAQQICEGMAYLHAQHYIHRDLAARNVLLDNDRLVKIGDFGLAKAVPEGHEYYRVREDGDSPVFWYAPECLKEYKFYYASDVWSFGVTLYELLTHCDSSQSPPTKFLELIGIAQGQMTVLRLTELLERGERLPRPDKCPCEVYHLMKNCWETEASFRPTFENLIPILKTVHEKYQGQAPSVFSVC
T2 sequence (Q9UM73 19-1620): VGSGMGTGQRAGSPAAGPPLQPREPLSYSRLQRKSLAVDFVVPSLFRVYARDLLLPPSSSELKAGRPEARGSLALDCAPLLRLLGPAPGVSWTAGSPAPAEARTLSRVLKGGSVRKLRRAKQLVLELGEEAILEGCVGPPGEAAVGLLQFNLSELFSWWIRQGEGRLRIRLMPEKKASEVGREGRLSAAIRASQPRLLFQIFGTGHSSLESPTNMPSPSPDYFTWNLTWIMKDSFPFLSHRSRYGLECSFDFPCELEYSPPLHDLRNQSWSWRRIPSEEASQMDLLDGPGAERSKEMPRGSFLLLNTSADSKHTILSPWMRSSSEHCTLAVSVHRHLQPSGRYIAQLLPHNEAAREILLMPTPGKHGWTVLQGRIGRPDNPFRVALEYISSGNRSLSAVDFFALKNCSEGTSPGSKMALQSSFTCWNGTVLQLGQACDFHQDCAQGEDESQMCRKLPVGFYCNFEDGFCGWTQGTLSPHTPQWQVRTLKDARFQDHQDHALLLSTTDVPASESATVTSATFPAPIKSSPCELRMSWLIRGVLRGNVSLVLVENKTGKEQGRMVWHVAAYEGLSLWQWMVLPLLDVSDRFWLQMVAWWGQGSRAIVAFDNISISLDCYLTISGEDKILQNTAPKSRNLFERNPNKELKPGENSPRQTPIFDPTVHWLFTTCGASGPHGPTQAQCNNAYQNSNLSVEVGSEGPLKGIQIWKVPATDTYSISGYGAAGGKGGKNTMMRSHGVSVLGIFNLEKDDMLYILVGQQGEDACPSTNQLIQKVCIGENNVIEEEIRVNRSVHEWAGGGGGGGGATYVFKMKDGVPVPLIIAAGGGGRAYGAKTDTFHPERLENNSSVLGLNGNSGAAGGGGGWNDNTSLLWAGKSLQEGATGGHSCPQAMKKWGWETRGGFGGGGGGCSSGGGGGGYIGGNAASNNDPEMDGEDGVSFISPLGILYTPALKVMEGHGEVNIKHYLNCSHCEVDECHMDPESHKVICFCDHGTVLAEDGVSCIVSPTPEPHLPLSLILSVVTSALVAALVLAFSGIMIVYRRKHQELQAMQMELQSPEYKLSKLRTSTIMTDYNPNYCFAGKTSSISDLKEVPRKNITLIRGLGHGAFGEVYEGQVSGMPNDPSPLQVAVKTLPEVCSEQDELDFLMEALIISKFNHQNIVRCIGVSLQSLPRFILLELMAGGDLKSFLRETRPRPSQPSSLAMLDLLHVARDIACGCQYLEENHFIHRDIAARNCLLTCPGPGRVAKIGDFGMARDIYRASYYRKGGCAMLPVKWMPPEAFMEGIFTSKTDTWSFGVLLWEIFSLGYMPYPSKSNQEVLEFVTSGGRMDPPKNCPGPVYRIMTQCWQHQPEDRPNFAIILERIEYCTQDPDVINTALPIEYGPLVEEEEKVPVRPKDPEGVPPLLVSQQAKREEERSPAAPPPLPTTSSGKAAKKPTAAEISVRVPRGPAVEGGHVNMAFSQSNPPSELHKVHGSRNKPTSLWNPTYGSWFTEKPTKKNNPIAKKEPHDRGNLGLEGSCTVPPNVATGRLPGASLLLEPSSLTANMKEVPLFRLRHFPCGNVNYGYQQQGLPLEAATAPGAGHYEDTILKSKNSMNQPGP
T1 sequence (P52333 781-1124): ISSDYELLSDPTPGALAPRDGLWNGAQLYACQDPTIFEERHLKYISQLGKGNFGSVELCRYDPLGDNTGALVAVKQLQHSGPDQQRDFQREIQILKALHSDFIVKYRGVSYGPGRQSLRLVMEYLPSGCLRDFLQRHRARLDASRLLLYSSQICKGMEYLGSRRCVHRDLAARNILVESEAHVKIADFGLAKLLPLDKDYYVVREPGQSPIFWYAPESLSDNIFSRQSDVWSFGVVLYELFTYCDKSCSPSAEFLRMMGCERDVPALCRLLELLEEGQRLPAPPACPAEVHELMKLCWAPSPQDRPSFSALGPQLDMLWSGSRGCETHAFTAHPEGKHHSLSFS

One may read the pIC50 as −log10 of the IC50, conventionally taken in molar units. On to `[O-][S+]1Cc2cccc(c2)Nc2nc(ncc2Cl)Nc2cccc1c2` (stereo not drawn) [Example D3, 6-Chloro-15-thia-2,4,8,22-tetraazatetracyclo[14.3.1.1(3,7).1(9,13)]docosa-1(20),3(22),4,6,9(21),10,12,16,18-nonaene 15-oxide trifluoroacetate], for which the negative-log IC50 (pIC50) in test [1] (Table D1) is 7.89; in test [2] (Table D1), 7.40; in test [3] (Table D1, 90 μM ATP), 5.96; in test [4] (Table D1), 8.20; in test [5] (Table D1), 7.60.
As to `COc1ccc(N2CCN(C(=O)Nc3ccc4cc3CCc3cncc(c3)Nc3ncc(Cl)c(n3)N4)CC2)cc1` [Example B299, N-[6-Chloro-2,4,8,18,22-pentaazatetracyclo[14.3.1.1(3,7).1(9,13)]docosa-1(20),3(22),4,6,9(21),10,12,16,18-nonaen-12-yl]-4-(4-methoxyphenyl)piperazine-1-carboxamide tris(trifluoroacetate)], the pIC50 in test [1] (Table B1) is under 6.40; in test [2] (Table B1), 7.09; in test [4] (Table B1), 6.74; in test [5] (Table B1) it was 7.52. Besides, the “ALK % of inhibition at a concentration of 500 nM or 1 mM” value (“ALK % of inhibition” below) in test [3] (setting [6]) came out at 74%.
The matching figures for `Cc1csc(NC(=O)Nc2ccc3cc2CCc2cccc(c2)Nc2ncc(Cl)c(n2)N3)c1` [Example B120, N-[6-Chloro-2,4,8,22-tetraazatetracyclo[14.3.1.1(3,7).1(9,13)]docosa-1(20), 3(22),4,6,9(21),10,12,16,18-nonaen-12-yl]-N′-(4-methyl-2-thienyl)urea trifluoroacetate]: 7.17, 7.60, 8.10, 8.17 and 16%.
In the case of `Cc1noc(C)c1C(=O)Nc1ccc2cc1CCc1cccc(c1)Nc1ncc(Cl)c(n1)N2` [Example B40, N-[6-Chloro-2,4,8,22-tetraazatetracyclo[14.3.1.1(3,7).1(9,13)]docosa-1(20), 3(22),4,6,9(21),10,12,16,18-nonaen-12-yl]-3,5-dimethylisoxazole-4-carboxamide trifluoroacetate], the pIC50 in test [1] (Table B1) is 8.44; in test [2] (Table B1), 8.68; in test [3] (setting [7]), 6.37; in test [4] (Table B1), 9.26; in test [5] (Table B1), 8.85.
With `O=C(Nc1ccccc1)N1CCN(c2ccc(-c3cc4cc(c3)Nc3ncc(Cl)c(n3)Nc3cccc(c3)OCC4)cn2)CC1` [Example D42, 4-{5-[6-Chloro-14-oxa-2,4,8,23-tetraazatetracyclo[15.3.1.1(3,7).1(9,13)]tricosa-1(21),3(23),4,6,9(22),10,12,17,19-nonaen-19-yl]pyridin-2-yl}-N-phenylpiperazine-1-carboxamide bis(trifluoroacetate)], the negative logarithm of the IC50 (pIC50) is 7.70 in test [1] (Table D1); 8.40 in test [2] (Table D1); 6.14 in test [3] (Table D1, 90 μM ATP); 8.68 in test [4] (Table D1); 8.66 in test [5] (Table D1).
Regarding `N#Cc1cccc(C(=O)N2CCC(CC(=O)Nc3ccc4cc3CCc3cccc(c3)Nc3ncc(Cl)c(n3)N4)CC2)c1` [Example A187, N-[6-Chloro-2,4,8,22-tetraazatetracyclo[14.3.1.1(3,7).1(9,13)]docosa-1(20),3(22),4,6,9(21),10,12,16,18-nonaen-12-yl]-2-[1-(3-cyanobenzoyl)piperidin-4-yl]acetamide trifluoroacetate], the negative logarithm of the IC50 (pIC50) was under 6.70 in test [1] (setting [8]), under 6.70 in test [2], 6.88 in test [4] (setting [10]) and 7.28 in test [5] (setting [11]). In addition, the “ALK % of inhibition” value in test [3] (setting [9]) came to 37%.
With `N#Cc1ccccc1S(=O)(=O)Nc1ccc2cc1CCc1cccc(c1)Nc1ncc(Cl)c(n1)N2` [Example B155, N-[6-Chloro-2,4,8,22-tetraazatetracyclo[14.3.1.1(3,7).1(9,13)]docosa-1(20), 3(22),4,6,9(21),10,12,16,18-nonaen-12-yl]-2-cyanobenzenesulfonamide trifluoroacetate], the negative-log IC50 (pIC50) in test [1] (Table B1) is 7.40; in test [2] (Table B1), 8.66; in test [3] (setting [7]), under 6.00; in test [4] (Table B1) it was 8.62; in test [5] (Table B1), 8.89.
Consider `O=C1CCc2cccc(c2)Nc2nc(ncc2Cl)Nc2cccc(c2)N1` [Example D76, 6-Chloro-2,4,8,17,24-pentaazatetracyclo[16.3.1.1(3,7).1(9,13)]tetracosa-1(22),3(24),4,6,9(23),10,12,18,20-nonaen-16-one trifluoroacetate], for which the pIC50 was 6.93 in test [1] (Table D1); 7.89 in test [2] (Table D1); 5.69 in test [3] (Table D1, 90 μM ATP); 7.74 in test [4] (Table D1); 7.96 in test [5] (Table D1).
For the molecule `CC(C)N1CCC(CC(=O)Nc2ccc3cc2CCc2cncc(c2)Nc2ncc(Cl)c(n2)N3)CC1` [Example A140, N-[6-Chloro-2,4,8,18,22-pentaazatetracyclo[14.3.1.1(3,7).1(9,13)]docosa-1(20),3(22),4,6,9(21),10,12,16,18-nonaen-12-yl]-2-(1-isopropylpiperidin-4-yl)acetamide tris(trifluoroacetate)], the pIC50 in test [1] (setting [8]) was 6.93; in test [2] it was 7.17; in test [4] (setting [10]) it was 7.34; in test [5] (setting [11]), 7.42. Further, in test [3] (setting [9]), the “ALK % of inhibition” value was 18%.
Take `O=C(CC1CCN(c2nc3ccccc3s2)CC1)Nc1ccc2cc1CCc1cncc(c1)Nc1ncc(Cl)c(n1)N2` [Example A157, 2-[1-(1,3-Benzothiazol-2-yl)piperidin-4-yl]-N-[6-chloro-2,4,8,18,22-pentaazatetracyclo[14.3.1.1(3,7).1(9,13)]docosa-1(20),3(22),4,6,9(21),10,12,16,18-nonaen-12-yl]acetamide tris(trifluoroacetate)]: the pIC50 in test [1] (setting [8]) was under 5.00; in test [2] it was 6.21; in test [4] (setting [10]), 6.99; in test [5] (setting [11]) it was 8.59. The “ALK % of inhibition” value in test [3] (setting [9]) is reported as 15%.
With `O=C(Nc1ccc2cc1CCc1cccc(c1)Nc1ncc(Cl)c(n1)N2)c1nccs1` [Example B52, N-[6-Chloro-2,4,8,22-tetraazatetracyclo[14.3.1.1(3,7).1(9,13)]docosa-1(20), 3(22),4,6,9(21),10,12,16,18-nonaen-12-yl]-1,3-thiazole-2-carboxamide trifluoroacetate], the negative-log IC50 (pIC50) in test [1] (Table B1) is 7.77; in test [2] (Table B1), 8.20; in test [3] (setting [7]), 6.04; in test [4] (Table B1) it was 8.74; in test [5] (Table B1), 8.43.
Regarding `CN(C)C(=O)N1CCC(CC(=O)Nc2ccc3cc2CCc2cccc(c2)Nc2ncc(Cl)c(n2)N3)CC1` [Example A80, 4-(2-{[6-Chloro-2,4,8,22-tetraazatetracyclo[14.3.1.1(3,7).1(9,13)]docosa-1(20),3(22),4,6,9(21),10,12,16,18-nonaen-12-yl]amino}-2-oxoethyl)-N,N-dimethylpiperidine-1-carboxamide trifluoroacetate], the negative-log IC50 (pIC50) in test [1] (setting [8]) was 7.21; in test [2] it was 8.28; in test [4] (setting [10]) it was 8.36; in test [5] (setting [11]), 8.09. Further, the “ALK % of inhibition” value in test [3] (setting [9]) stood at 21%.
